Experimental data: patent US20050234073A1, “Methods of inhibiting inflammation” (priority 2003, published 2005)
Positions count from the first letter of the chain named. Values belong to the molecule of their own block, whether it stands above or below them.

Columns and labels:
C1Rd cells = assay: C1Rd cell CD1d-mediated activation of human peripheral blood derived iNKT cell line with PMA (IFN-gamma); type: cell-based; settings: limiting concentration of PMA
Description: FIG. 20E is a line chart showing IFN-gamma production in C1Rd cells cultured with BMS197636 or vehicle and incubated with NKT cell lines derived from human peripheral blood in the presence of 1 ng/mL PMA.
APCs were incubated with 100 ng/mL α-galcer (kindly provided by Dr. H. Ploegh) for 3 hours, washed three times in PBS and aliquoted into a 96 well plate at 10^6 cells/mL. DN32 cells were added at 1:1 E:T ratio unless otherwise indicated. CD4^+ cells were isolated from spleens of OT-II transgenic mice using positive selection on CD4 magnetic beads (Miltenyi Biotec) and incubated with APCs and 100 μg/mL ovalbumin. The 24.8 NKT cell line was incubated with APCs in the absence of added antigen at E:T=2:1 unless otherwise indicated. Mouse IL-2 production was assessed by ELISA (OptEIA, BD PharMingen) of 24 or 40 hour culture supernatants. APCs were treated with BMS212122 (10 uM dissolved in DMSO; kindly provided by Bristol Myers Squibb, New Jersey) as indicated and washed prior to addition of T or NKT cells. […]
C1Rd is a human B cell line transfected with human CD1d. […] Incubation of C1Rd cells with BMS212122, but not the vehicle, inhibited the presentation of α-galcer as determined by a reduction in IL-2 secretion (FIG. 20D).

MTP = molecular target: T1, MTP (Mus musculus, UniProt O08601); assay: Triglyceride transfer assay in splenocyte lysates; type: biochemical; settings: splenocyte lysate with inhibitor added
T1 construct: Splenocyte lysates contained measurable triglyceride transfer activity; endogenous in cells; host or cells: primary mouse splenocytes (crude lysate)
T1 sequence (O08601 22-894): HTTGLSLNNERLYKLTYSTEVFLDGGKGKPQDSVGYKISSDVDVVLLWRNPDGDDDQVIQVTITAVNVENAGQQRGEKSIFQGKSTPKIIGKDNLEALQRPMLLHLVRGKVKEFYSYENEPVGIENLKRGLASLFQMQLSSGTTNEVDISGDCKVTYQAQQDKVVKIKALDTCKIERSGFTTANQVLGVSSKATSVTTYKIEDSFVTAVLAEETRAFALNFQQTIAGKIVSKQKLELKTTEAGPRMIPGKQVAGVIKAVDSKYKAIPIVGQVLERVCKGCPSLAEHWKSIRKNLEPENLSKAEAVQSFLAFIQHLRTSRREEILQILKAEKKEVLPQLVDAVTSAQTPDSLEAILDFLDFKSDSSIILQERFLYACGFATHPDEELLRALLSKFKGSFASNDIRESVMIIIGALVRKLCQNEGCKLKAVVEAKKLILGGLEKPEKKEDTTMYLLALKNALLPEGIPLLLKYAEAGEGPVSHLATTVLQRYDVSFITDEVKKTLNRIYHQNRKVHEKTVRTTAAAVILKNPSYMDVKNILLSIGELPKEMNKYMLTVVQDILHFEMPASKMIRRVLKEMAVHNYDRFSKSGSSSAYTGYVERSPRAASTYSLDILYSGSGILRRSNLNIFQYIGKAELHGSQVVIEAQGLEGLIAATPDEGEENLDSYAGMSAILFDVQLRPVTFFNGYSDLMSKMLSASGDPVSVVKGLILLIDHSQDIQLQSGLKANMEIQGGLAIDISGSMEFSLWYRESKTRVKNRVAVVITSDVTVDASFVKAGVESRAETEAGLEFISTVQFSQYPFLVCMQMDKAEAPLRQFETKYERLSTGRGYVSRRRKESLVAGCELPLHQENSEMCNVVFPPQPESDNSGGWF
T1 sequence (P09103 20-509 partner): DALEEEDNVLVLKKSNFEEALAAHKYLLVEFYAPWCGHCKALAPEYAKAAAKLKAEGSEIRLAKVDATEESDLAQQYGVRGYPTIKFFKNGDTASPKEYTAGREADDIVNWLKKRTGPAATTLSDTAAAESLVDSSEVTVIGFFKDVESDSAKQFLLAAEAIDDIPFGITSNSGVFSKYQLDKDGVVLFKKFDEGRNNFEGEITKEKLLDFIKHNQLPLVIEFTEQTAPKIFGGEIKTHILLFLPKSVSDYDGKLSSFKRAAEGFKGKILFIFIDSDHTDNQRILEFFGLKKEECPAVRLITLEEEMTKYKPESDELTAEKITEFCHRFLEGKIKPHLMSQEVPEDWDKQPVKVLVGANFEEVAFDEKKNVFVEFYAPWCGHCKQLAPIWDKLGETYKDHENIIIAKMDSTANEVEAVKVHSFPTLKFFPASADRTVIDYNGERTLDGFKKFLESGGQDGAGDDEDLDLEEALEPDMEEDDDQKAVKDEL
Description: FIG. 15C is a line graph showing triglyceride transfer activity in 100 ug splenocyte lysate (Δ), 50 μg splenocyte lysate (◯), 100 μg splenocyte lysate with BMS197636 (▴), and 50 μg splenocyte lysate with BMS197636 (●). Assays were in triplicate with standard deviations less than 10% of percent transfer at 3 hours.
(§1) The triglyceride transfer activity of MTP was measured using donor phospholipids vesicles (Chylos Inc.) as described. PE transfer was done by overnight coating of a microtiter plate with 2 ug per well recombinant murine CD1d purified by baculovirus expression system. Wells were washed with PBS, incubated with PBS containing 0.5% isopropanol for 2 hours at 37° C., and washed again with PBS. […] Fluorescence was read with a fluorescence plate reader (7620 Microplate Fluorimeter; Cambridge Technology, Watertown, Mass.) using 460 nm excitation and 530 nm emission wavelengths.
In this assay, MTP function is assessed by studying the transfer of fluorescently labeled triglycerides embedded in donor phospholipid vesicles to acceptor vesicles. During the transfer, the amount of triglyceride associated with MTP can be measured as an increase in fluorescence over time. […]

recombinant murine CD1d = molecular target: T2, recombinant murine CD1d (Mus musculus, UniProt P11609); assay: PE transfer assay from MTP to recombinant CD1d; type: biochemical; settings: 0.5 μg purified MTP, PE:NBD vesicles, 2 hours 37 degrees
T2 construct: made in house; host or cells: baculovirus expression system (CD1d); rat liver (MTP)
T2 sequence (P11609 22-305 limits assumed): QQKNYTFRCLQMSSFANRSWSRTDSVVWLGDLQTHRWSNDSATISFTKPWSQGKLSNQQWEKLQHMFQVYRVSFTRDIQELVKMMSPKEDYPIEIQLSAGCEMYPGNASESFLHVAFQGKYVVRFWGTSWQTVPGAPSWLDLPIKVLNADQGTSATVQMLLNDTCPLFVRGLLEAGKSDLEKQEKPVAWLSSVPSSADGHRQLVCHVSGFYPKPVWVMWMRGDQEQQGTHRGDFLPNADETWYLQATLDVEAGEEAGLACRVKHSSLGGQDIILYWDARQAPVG
T2 sequence (P01887 21-119 partner): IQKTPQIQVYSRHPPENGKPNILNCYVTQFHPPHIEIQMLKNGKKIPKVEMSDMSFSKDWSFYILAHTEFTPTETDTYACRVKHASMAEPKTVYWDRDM
Description: FIG. 16A is a bar chart showing purified MTP transfers a lipid to recombinant CD1d in vitro. Two micrograms of BSA or recombinant CD1d were coated onto microtiter wells and incubated with either PE:NBD vesicles alone or PE:NBD vesicles plus 0.5 μg purified MTP. Results are representative of five independent experiments. *, p<0.005
as §1, with “system.” for “system. Wells were washed with PBS, incubated with PBS containing 0.5% isopropanol for 2 hours at 37° C., and washed again with PBS.”
Recombinant β2m associated CD1d was coated onto a 96 well plate and incubated with liposomes containing a 6:1 ratio of unlabeled PE:NBD-labeled PE. […] Lipids bound to CD1d were eluted with isopropanol, transferred to a black microtiter plate, and the level of fluorescence determined. […] Assuming equal efficiency of MTP-mediated transfer of labeled versus unlabeled PE to the CD1d pocket and that all CD1d molecules bound to the plastic in an orientation with the groove solvent accessible, we calculated that the maximum limit of NBD-labeled PE that could be transferred to CD1d was 4.7 picomoles in this assay. […]

Molecule: 9-[4-[[[4′-(trifluoromethyl)[1,1′-biphenyl]-2-yl]carbonyl]amino]butyl-piperidin-4-yl]-N-(2,2,2-trifluoroethyl)-9H-fluorene-9-carboxamide [BMS197636]
CD1d-mediated activation of human peripheral blood derived iNKT cell line (C1Rd cells): dose-dependent inhibition
triglyceride transfer activity of splenocyte lysates (MTP): abrogated

increase in fluorescence above background (PE transferred to CD1d) (recombinant murine CD1d): 5 fold
B1: MTP: microsomal triglyceride transfer protein purified from rat liver (>95% pure by SDS-PAGE) (protein)
chain 1: T1 sequence (O08601 22-894) with G633K, K634G, A635T, V779L, E851Q
chain 2: T1 sequence (P09103 20-509 partner)
